How the values were obtained:
[1] = test system: phosphorylated p38 in SL0003 lung cancer cells; experiment: p38 phosphorylation (PhosFlow); format: cell-based; settings: 30 minutes, pemetrexed at 10 μM and 50 μM
Method: A second measure of sample liposome entering the cell is intracellular activation pathways. Cells respond to ligands binding to their receptors by activating kinases, in this case p38. The activated kinases can be measured by flow cytometry. The cells are incubated with sample liposome for 30 minutes and then lysed with a mild detergent. The activated p38 kinase is detected with an antibody by flow cytometry. A shift under the red line gate indicates a higher level of phosphorylated p38 (See FIG. 18A and 18BG). Cancer cells may have a higher basal level of activated kinases.
In addition, for FIG. 17, measuring p38 phosphorylation (PhosFlow) SL0003, normal colon cells, and normal breast cells were seeded at 10,000 cells/well. Cells were treated with: Fresh Pemetrexed ([…]), LEAF-001 (Liposome 070715 MPF; 5traut/50 Mab, 15traut/50Mab, 45traut/50Mab) (13.33× dilution), anti-folate receptor alpha (MABFRA H/L 1.01 mg/ml) (13.33× dilution) to determine the effect of the antibody in sample liposome, or no treatment. The cells were gently mixed and quickly placed in incubator. At each time point (30 minutes-4 hours), the plates were removed from the incubator and immediately fixed with formaldehyde for a final concentration of 2%. The plates were incubated for 5 minutes at room temperature. 25 μl of media was removed. […] The cells were read on the flow cytometer (in FL2).

[2] = test system: SL0003 (lung cancer) cells; experiment: Cell cycle by propidium iodide DNA staining, flow cytometry; format: cell-based; settings: titrated concentrations, day 5
Method: SL0003 (lung cancer) cells were prepared as described in the Example describing MTS assays (Example 5).
For this assay, the cells were cultured for 4 or 5 days (shown is day 5.). More specifically, […] cells (lung adenocarcinoma) were seeded in 96 well plates and treated the next day with titrated concentrations of LEAF-001 or pemetrexed. At day 5, cells were lysed with FACS buffer, 0.2% triton X-100, 0.3% formaldehyde. The DNA was stained with Propidium Iodine for 30 minutes […] to evaluate cell cycle
The cells were washed and evaluated by flow cytometry (FL2). FIG. 22A depicts a schematic showing the cell cycle. By inhibiting the formation of precursor purine and pyrimidine nucleotides, pemetrexed prevents the formation of DNA and RNA, which are required for the growth and survival of both normal cells and cancer cells.

CD34+ stem cells = experiment: Neutrophil differentiation of CD34+ stem cells, flow cytometry; format: cell-based, human; settings: pemetrexed 2-50 μM; day 2; n=4 donors
Method: Experiments were performed as follows: CD34+ stem cells were obtained from ATCC. CD34+ cells were thawed at 37° C. for 1 minute. While on ice, the cells were transferred to cold stem cell medium (“StemSpan SFEM”-Stem Cell Tech. cat. #9650), 10% heat […] fetal bovine serum (HI FBS.) Each vial contained approximated 5×10^5 cell/ml. The cells were placed in 96 well tissue culture plates 35,000 cell/well. The neutrophils GROWTH media contained 100 ng/ml of stem cell factor human (SCF-Sigma H8416, lot #MKB[…]), 20 ng/ml of granulocyte colony-stimulation factor, human (G-CSF-Sigma H5541, lot #SLB[…]), 10 ng/ml of IL3 recombinant human (Sigma SRP3090, lot #1008AFC13) in […] media as above. […] The cells shown in the circle on the plots are maturing neutrophils expressing Mac-1 and CD34.

[3] = neutral pH; cited from earlier work

Nc1nc2[nH]cc(CCc3ccc(C(=O)N[C@@H](CCC(=O)O)C(=O)O)cc3)c2c(=O)[nH]1 [pemetrexed, Pemetrexed disodium heptahydrate]
effect on p38 activation [1]: reduces p38 activation
cell cycle effect (accumulation in S phase) [2]: induces cells to accumulate in S phase
neutrophil differentiation (CD34+ stem cells): neutrophil differentiation is inhibited
solubility [3]: 100 mg/mL

— patent US20250066468A1, “LIPOSOME ENCAPSULATED AFFINITY DRUG” (L.E.A.F. HOLDINGS GROUP LLC, priority 2014, published 2025)
